Reference: US10208077B1, “Aesculin lipoic acid ester with antioxidant activity and a method of preparing the same” (SHAANXI UNIVERSITY OF SCIENCE AND TECHNOLOGY, priority 2018, dated 2019)

Experiment: DPPH radical scavenging activity assay
Assay type: biochemical
Conditions: for Scavenging activity (%): 0.2 mmol/L DPPH, 30 min, room temperature, dark, absorbance at 517 nm
Excerpt: The Antioxidant Activity of the Aesculin Lipoic Acid Ester Measured by a DPPH Radical Scavenging Activity Assay
2,2-Diphenyl-1-picryl hydrazyl (DPPH) is an organic compound composed of a stable organic radical. In the DPPH molecule, due to the presence of multiple electron-withdrawing —NO2 and large π bonds of the benzene ring, nitrogen free radical is stabilized. Its methanol solution is purple and has a maximum absorption peak at 517 nm. After the addition of an antioxidant, DPPH captures an electron to be paired with the free electron, and the purple fades and turns into a yellow substance. The absorption at 517 nm disappears, and the degree of fading is quantitatively related to the number of electrons it captures. Based on this principle, a spectrophotometer is used to detect the change of the absorbance of the DPPH radical and the sample solution, and the ability of the sample to provide hydrogen atoms and scavenge free radicals can be measured.
Preparation of DPPH solution: measuring exact amount of 2,2-diphenyl-1-picryl hydrazyl (DPPH) and dissolving in methanol to prepare a 0.2 mmol/L DPPH solution, stored at 0° C. in dark.
Preparation of sample solutions: the aesculin lipoic acid ester was diluted with a concentration gradient of 1.82, 7.28, 24.2, 48.4, 72.6, 96.8, 242, 484, 726, 968 ppm with acetonitrile to prepare sample solutions to be tested. Control samples (vitamin C, aesculin, lipoic acid, a mixture of aesculin and lipoic acid) were diluted with methanol in the same manner in the same concentration gradient to obtain the corresponding four groups of control solutions.
Measuring the Scavenging Activity of the Sample Solutions:
2 mL of the sample solutions at each concentration gradient was taken, 2 mL 0.2 mmol/L DPPH solution was added, the mixture was mixed and reacted at room temperature in dark for 30 minutes, and methanol was then added to adjust final volume. The absorbance Ai was measured at 517 nm. 2 mL control solution and 2 mL methanol were mixed, and the absorbance Aj was measured. 2 mL DPPH solution and 2 mL methanol were mixed, and the absorbance A0 was measured. The scavenging activity of the sample solution and control solutions is calculated according to the following calculation formula. Scavenging activity (%)=100×[1−(Ai−Aj)/A0]

SMILES	Scavenging activity (%) (1.82 ppm)	Scavenging activity (%) (7.28 ppm)	Scavenging activity (%) (24.2 ppm)	Scavenging activity (%) (48.4 ppm)	Scavenging activity (%) (72.6 ppm)	Scavenging activity (%) (96.8 ppm)	Scavenging activity (%) (242 ppm)	Scavenging activity (%) (484 ppm)	Scavenging activity (%) (726 ppm)	Scavenging activity (%) (968 ppm)	free radical clearance rate (achieved at a lower concentration than aesculin, lipoic acid and their mixture)
O=C1O[C@H]([C@@H](O)CO)C(O)=C1O [Vitamin C, vitamin C]	23.86%	72.45%	96.70%	96.99%	97.58%	97.77%	97.77%	98.06%	98.06%	98.06%	
O=C(O)CCCC[C@@H]1CCSS1 (racemic) [Lipoic acid]	0.86%	1.14%	1.43%	1.62%	2.47%	3.81%	8.47%	16.65%	20.17%	21.88%	
O=C(CCCC[C@@H]1CCSS1)OCC1OC(Oc2cc3ccc(=O)oc3cc2O)C(O)C(O)C1O (some centres unmarked) [Aesculin lipoic acid ester, aesculin lipoic acid ester]	30.93%	42.73%	57.70%	72.90%	83.5%	89.73%	95.30%	96.50%	96.83%	96.94%	more than 90%
O=c1ccc2cc(O[C@@H]3O[C@H](CO)[C@@H](O)[C@H](O)[C@H]3O)c(O)cc2o1 [Aesculin]	3.44%	3.53%	5.12%	5.56%	8.12%	10.77%	24.01%	42.54%	58.34%	70.70%	
